US20120016019A1, “PHARMACEUTICAL COMPOSITION FOR TREATING OR PREVENTING CANCER” (priority 2010, published 2012)
Values joined by “and” are separate entries in the source; they are usually repeats but may differ in a detail not shown here. Equal entries are not always repeated.

What was measured:
C-6 = assay: Cell counts, C-6; format: cell-based, rat
Description: Cancer cell lines HCC 1419, MCF-7, MDA-MB-468, SKBR3, PC3, HT1299, Saos-2, C-6, AsPc, MDA-MB-231, RKO, HeLa and TT, and normal cell lines HME 50 HT, BJ and CCD-1074sk were tested for changes in metabolism (XTT assay) and cell death (cell counts).
Cells were plated into 48-well Corning CellBind™ plates at densities of 20,000 cells for normal cells and 10,000˜20,000 cells for cancer cells. 24 to 48 h after plating, cells were treated with the composition according to the invention at concentrations of 4.5e-2M. The first time point treated with the composition of the invention is 0 h. At 3 days after the first treatment with the composition of the invention, medium was changed and the composition of the invention at the same concentrations were added to the cultured cells.
Cells were harvested using Trypsin-EDTA at the designated time points. When total cells for each well were counted with a Beckman-Coulter Z1 Particle Characterization Unit, the vertical axis represents 1/20 of cell number in the Figures attached to the specification, while when counted with a Beckman-Coulter Vi-Cell, the vertical axis represents cell number in the Figures. Two 48-well plates were used per cell line, and they were measured at 0 h, 12 h, 24 h, 48 h, 4 d and 7 d, respectively.
In the 1st plate, cells were treated with the composition according to the invention and medium was changed at 0 h and 3 d. […] As a result, LC-50 curves were generated in the 1st week.
C-6 is glioblastoma cells.

MDA-MB-231 = assay: Cell counts, MDA-MB-231; format: cell-based
Description: (§1) As a result, LC-50 curves were generated in the 1st week.
(§2) In the 2nd plate, 7 d of the 1st week (LC-50) is the same as 0 h of the 2nd week (recovery).
(§3) At 0 h of the 2nd week, medium was exchanged with untreated medium for the remainder of the experiment. The untreated controls were not measured in the 2nd week (recovery) due to overconfluence by the end of the 1st week. As a result, Recovery curves were generated in the 2nd week.

RKO = assay: Cell counts, RKO; format: cell-based
Description: as §1, §2, §3

HeLa = assay: Cell counts, HeLa; format: cell-based; conditions: 1st week (LC50)
Description: as §1, §2, §3

CC(=O)O[C@H]1C(=O)[C@@]2(C)[C@H]([C@H](OC(=O)c3ccccc3)[C@]3(O)C[C@H](OC(=O)[C@H](O)[C@@H](NC(=O)c4ccccc4)c4ccccc4)C(C)=C1C3(C)C)[C@]1(OC(C)=O)CO[C@@H]1C[C@@H]2O [Taxol]
cell counts (C-6; 1st week (LC50), 0 h): 6111 and 7077 and 4897 | cell counts, Mean value (C-6; 1st week (LC50), 0 h): 6028 | cell counts (C-6; 1st week (LC50), 12 h): 3726 and 4240 | cell counts, Mean value (C-6; 1st week (LC50), 12 h): 4469 | cell counts (C-6; 1st week (LC50), 24 h): 3895 and 3853 and 3340 | cell counts, Mean value (C-6; 1st week (LC50), 24 h): 3696 | cell counts (C-6; 1st week (LC50), 48 h): 6630 and 6722 | cell counts, Mean value (C-6; 1st week (LC50), 48 h): 6243 | cell counts (C-6; 1st week (LC50), 4 d): 6026 and 6751 and 6905 | cell counts, Mean value (C-6; 1st week (LC50), 4 d): 6561 | cell counts, Mean value (C-6; 1st week (LC50), 7 d): 4450 | cell counts (C-6; 2nd week (recovery), 0 h): 2984 and 3948 and 4207 | cell counts, Mean value (C-6; 2nd week (recovery), 0 h): 3713 | cell counts (C-6; 2nd week (recovery), 24 h): 3392 and 4285 and 3984 | cell counts, Mean value (C-6; 2nd week (recovery), 24 h): 3887 | cell counts (C-6; 2nd week (recovery), 48 h): 3166 and 3930 | cell counts, Mean value (C-6; 2nd week (recovery), 48 h): 4184 | cell counts (C-6; 2nd week (recovery), 4 d): 4825 and 3184 | cell counts, Mean value (C-6; 2nd week (recovery), 4 d): 4031 | cell counts (C-6; 2nd week (recovery), 7 d): 3989 and 4316 and 3634 | cell counts, Mean value (C-6; 2nd week (recovery), 7 d): 3980 | response of the cells (C-6; composition: after 4 days of exposure): resistance to Taxol | cell counts (MDA-MB-231; 1st week (LC50), 0 h): 47000 and 42000 and 53000 | cell counts, Mean value (MDA-MB-231; 1st week (LC50), 0 h): 47333 | cell counts (MDA-MB-231; 1st week (LC50), 24 h): 32000 and 39000 and 22000 | cell counts, Mean value (MDA-MB-231; 1st week (LC50), 24 h): 31000 | cell counts (MDA-MB-231; 1st week (LC50), 48 h): 13000 and 16000 and 23000 | cell counts, Mean value (MDA-MB-231; 1st week (LC50), 48 h): 17333 | cell counts (MDA-MB-231; 1st week (LC50), 4 d): 19500 and 24000 and 26500 | cell counts, Mean value (MDA-MB-231; 1st week (LC50), 4 d): 23333 | cell counts, Mean value (MDA-MB-231; 1st week (LC50), 7 d): 9667 | growth of the cell population (MDA-MB-231; 2nd week (recovery)): begins to grow and shows the sign of recovering | cell counts (MDA-MB-231; 2nd week (recovery), 0 h): 12500 and 17500 and 22000 | cell counts, Mean value (MDA-MB-231; 2nd week (recovery), 0 h): 17333 | cell counts (MDA-MB-231; 2nd week (recovery), 24 h): 16000 and 32000 and 24000 | cell counts, Mean value (MDA-MB-231; 2nd week (recovery), 24 h): 24000 | cell counts, Mean value (MDA-MB-231; 2nd week (recovery), 48 h): 24500 | cell counts, Mean value (MDA-MB-231; 2nd week (recovery), 4 d): 22167 | cell counts, Mean value (MDA-MB-231; 2nd week (recovery), 7 d): 32000 | cell counts (RKO; 1st week (LC50), 0 h): 48000 and 49000 and 54000 | cell counts, Mean value (RKO; 1st week (LC50), 0 h): 50333 | cell counts (RKO; 1st week (LC50), 24 h): 101600 and 98000 and 99800 | cell counts, Mean value (RKO; 1st week (LC50), 24 h): 99800 | cell counts, Mean value (RKO; 1st week (LC50), 48 h): 78733 | cell counts (RKO; 1st week (LC50), 4 d): 36000 | cell counts, Mean value (RKO; 1st week (LC50), 4 d): 36000 | cell counts (RKO; 1st week (LC50), 7 d): 38600 and 25400 and 22800 | cell counts, Mean value (RKO; 1st week (LC50), 7 d): 28933 | cell counts (RKO; 2nd week (recovery), 0 h): 57000 and 58000 and 53000 | cell counts, Mean value (RKO; 2nd week (recovery), 0 h): 56000 | cell counts (RKO; 2nd week (recovery), 24 h): 26000 and 31000 and 39000 | cell counts, Mean value (RKO; 2nd week (recovery), 24 h): 32000 | cell counts (RKO; 2nd week (recovery), 48 h): 35000 and 38000 and 30000 | cell counts, Mean value (RKO; 2nd week (recovery), 48 h): 34333 | cell counts (RKO; 2nd week (recovery), 4 d): 39000 and 31000 and 26000 | cell counts, Mean value (RKO; 2nd week (recovery), 4 d): 32000 | cell counts, Mean value (RKO; 2nd week (recovery), 7 d): 35000 | cell counts (HeLa; 0 h): 158000 and 136000 and 184000 | cell counts, Mean value (HeLa; 0 h): 159333 | cell counts (HeLa; 24 h): 158000 and 276000 and 219000 | cell counts, Mean value (HeLa; 24 h): 217667 | cell counts (HeLa; 48 h): 105000 and 70000 and 79000 | cell counts, Mean value (HeLa; 48 h): 84667 | cell counts (HeLa; 4 d): 26000 and 39000 and 31000 | cell counts, Mean value (HeLa; 4 d): 32000
